From publication PMC11314731 (Polymers, 2024)
Read-outs that look alike come from different tables or passages of the source.

Legend:
[1] = cited from earlier work
[2] = test system: Mdr1a P-gp; set-up: method as in PMID 9050899; details: cited from earlier work
[3] = test system: Caco-2 cells; experiment: In vitro cellular uptake of Rh123 in Caco-2 cells; details: Rh123 20 µM, 5 h incubation, 37 °C; TPGS 33 µM, CyA 4 µM

SMILES	LogP [1]	pKa [1]	increase in plasma AUC of PTX, Mdr1a knockout vs wild-type mice ([2]; IV administration)	increase in plasma AUC of PTX, Mdr1a knockout vs wild-type mice ([2]; oral administration)	fluorescence intensity (cellular uptake of Rh123) [3]
CC(=O)O[C@H]1C(=O)[C@@]2(C)[C@H]([C@H](OC(=O)c3ccccc3)[C@]3(O)C[C@H](OC(=O)[C@H](O)[C@@H](NC(=O)c4ccccc4)c4ccccc4)C(C)=C1C3(C)C)[C@]1(OC(C)=O)CO[C@@H]1C[C@@H]2O [PTX, Paclitaxel]	3.66	10.36	twofold increase	more than sixfold increase	–
COC(=O)c1ccccc1-c1c2ccc(=N)cc-2oc2cc(N)ccc12 [free Rh123, rhodamine 123]	–	–	–	–	very low fluorescence intensity
